From patent US6949544B2, “Inhibitors of c-Jun N-terminal kinases (JNK) and other protein kinases” (Vertex Pharmaceuticals Incorporated, priority 2001, dated 2005)

Key:
Assay type in all cases: biochemical
[1] = target: T1, full length recombinant human Src kinase (Homo sapiens, UniProt P12931); assay: Src inhibition assay (33P incorporation into poly Glu-Tyr)
T1 construct: full length recombinant human Src kinase; purchased Upstate Biotechnology 14-117; host or cells: baculo viral cells (baculovirus expression)
Description: The compounds were assayed as inhibitors of full length recombinant human Src kinase (from Upstate Biotechnology, cat. no. 14-117) expressed and purified from baculo viral cells. Src kinase activity was monitored by following the incorporation of ^33P from ATP into the tyrosine of a random poly Glu-Tyr polymer substrate of composition, Glu:Tyr=4:1 (Sigma, cat. no. P-0275). The following were the final concentrations of the assay components: 0.05 M HEPES, pH 7.6, 10 mM MgCl2, 2 mM DTT, 0.25 mg/ml BSA, 10 μM ATP (1-2 μCi ^33P-ATP per reaction), 5 mg/ml poly Glu-Tyr, and 1-2 units of recombinant human Src kinase. In a typical assay, all the reaction components with the exception of ATP were pre-mixed and aliquoted into assay plate wells. […] The assay plate was incubated at 30° C. for 10 min before initiating the reaction with ^33P-ATP. After 20 min of reaction, the reactions were quenched with 150 μl of 10% trichloroacetic acid (TCA) containing 20 mM Na3PO4. The quenched samples were then transferred to a 96-well filter plate (Whatman, UNI-Filter GF/F Glass Fiber Filter, cat no. 7700-3310) installed on a filter plate vacuum manifold. Filter plates were washed four times with 10% TCA containing 20 mM Na3PO4 and then 4 times with methanol. 200 μl of scintillation fluid was then added to each well. The plates were sealed and the amount of radioactivity associated with the filters was quantified on a TopCount scintillation counter.

activated JNK3 = target: T2, activated JNK3 (Homo sapiens, UniProt P53779); assay: JNK inhibition assay (spectrophotometric coupled-enzyme assay); conditions: 10 nM activated JNK3, 10 μM ATP; read-out: Activity in the JNK3 Inhibition Assay (Ki rating A-C)
T2 construct: One such construct encodes amino acid residues Ser40-Glu402 of JNK3α1 and is preceded by Met and Gly residues; Met-Gly (initiator methionine and added glycine) (N); made in house; host or cells: E. coli BL21 (DE3)
Method in brief: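 Activated (doubly phosphorylated, MKK7(DD)-activated) human JNK3, 10 nM, preincubated 10 min at 30 °C with inhibitor in 0.1 M HEPES pH 7.5, 10 mM MgCl2, 200 μM EGF receptor peptide, PK/LDH-coupled. Started with 10 μM ATP; A340 decrease followed at 30 °C. Ki from competitive inhibition model fit.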

[2] = target: Glycogen Synthase Kinase 3 (GSK-3) (Homo sapiens, UniProt P49841); assay: GSK-3 inhibition assay (standard coupled enzyme assay); conditions: 60 nM GSK-3, 10 μM ATP; read-out: GSK-3 Inhibitory Activity (Ki rating A-C)
Method in brief: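 Pyruvate kinase/lactate dehydrogenase-coupled assay with 60 nM GSK-3 and 300 μM HSSPHQp-SEDEEE peptide in HEPES pH 7.5; compound preincubated 5 min at 30 °C, reaction started with 10 μM ATP. NADH absorbance at 340 nm tracked over 5 min; IC50 from rates versus inhibitor concentration.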

T1 sequence (P12931 whole entry): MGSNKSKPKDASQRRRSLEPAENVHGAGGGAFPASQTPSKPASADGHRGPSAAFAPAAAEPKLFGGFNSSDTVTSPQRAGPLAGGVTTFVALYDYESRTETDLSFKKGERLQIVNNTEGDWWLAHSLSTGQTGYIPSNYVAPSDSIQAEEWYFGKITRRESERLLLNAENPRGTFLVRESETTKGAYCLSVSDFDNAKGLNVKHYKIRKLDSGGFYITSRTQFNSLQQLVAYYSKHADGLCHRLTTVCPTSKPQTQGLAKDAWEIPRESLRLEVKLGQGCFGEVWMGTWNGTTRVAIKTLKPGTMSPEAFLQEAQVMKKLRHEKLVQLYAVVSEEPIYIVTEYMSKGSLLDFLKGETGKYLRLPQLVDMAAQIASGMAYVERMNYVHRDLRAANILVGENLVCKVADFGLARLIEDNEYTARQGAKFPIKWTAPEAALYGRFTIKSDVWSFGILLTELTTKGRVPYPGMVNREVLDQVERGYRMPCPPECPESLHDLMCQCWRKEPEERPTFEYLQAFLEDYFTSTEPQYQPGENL
T2 sequence (P53779 40-402): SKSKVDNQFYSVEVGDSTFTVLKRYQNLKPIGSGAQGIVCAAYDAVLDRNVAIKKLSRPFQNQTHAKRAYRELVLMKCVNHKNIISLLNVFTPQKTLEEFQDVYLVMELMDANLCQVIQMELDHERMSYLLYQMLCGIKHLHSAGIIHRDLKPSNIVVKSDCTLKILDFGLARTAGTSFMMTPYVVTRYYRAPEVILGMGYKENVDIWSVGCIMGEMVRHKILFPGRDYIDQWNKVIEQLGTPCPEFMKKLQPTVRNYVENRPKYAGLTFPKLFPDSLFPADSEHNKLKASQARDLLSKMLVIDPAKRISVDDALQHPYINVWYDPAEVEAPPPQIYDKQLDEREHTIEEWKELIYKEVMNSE
Sequence of Glycogen Synthase Kinase 3 (GSK-3) (P49841 whole entry): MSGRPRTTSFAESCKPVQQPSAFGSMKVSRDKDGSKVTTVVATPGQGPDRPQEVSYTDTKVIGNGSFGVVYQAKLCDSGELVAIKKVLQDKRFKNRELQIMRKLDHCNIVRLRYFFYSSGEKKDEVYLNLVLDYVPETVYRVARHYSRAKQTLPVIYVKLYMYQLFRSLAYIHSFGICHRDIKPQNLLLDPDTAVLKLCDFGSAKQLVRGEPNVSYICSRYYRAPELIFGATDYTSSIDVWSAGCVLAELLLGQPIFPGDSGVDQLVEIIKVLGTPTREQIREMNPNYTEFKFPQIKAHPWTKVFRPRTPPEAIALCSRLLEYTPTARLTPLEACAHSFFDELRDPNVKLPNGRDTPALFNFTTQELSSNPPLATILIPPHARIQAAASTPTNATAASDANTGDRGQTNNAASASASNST

SMILES	inhibition at 2 µM ([1]; at a 2 μM inhibitor concentration, read-out: Activity in the SRC Inhibition Assay (percent inhibition rating D-F))	Ki (activated JNK3)	Ki [2]	Ki ([1]; 10 μM ATP, read-out: Activity in the SRC Inhibition Assay (Ki rating A-C))
COc1cc(-c2ccnc(Nc3cccc(N)c3)n2)cc(OC)c1OC [Compound I-57]	24 to 66%	< 0.1 µM	0.1 to 1 µM	–
COc1cc(-c2ccnc(Nc3ccc(N)cc3)n2)cc(OC)c1OC [Compound I-34]	–	< 0.1 µM	0.1 to 1 µM	> 1 µM
